Reference: patent US12435059B2, “AMP-activated protein kinase inhibitors and methods of making and using the same” (The Regents of the University of Colorado, priority 2019, dated 2025)

How the values were obtained:
Assay in all cases: biochemical
Format in all cases: binding
468 kinases [1] = target: 468 kinases (Homo sapiens, UniProt Q12851); settings: MAP4K2; read-out: % Inhibition @ 100 nM
468 kinases [2] = target: 468 kinases (Homo sapiens, UniProt P00533, DEL752-759); settings: EGFR(S752-1759del); read-out: % Inhibition @ 100 nM
468 kinases (Homo sapiens, UniProt P00533, DEL752-759), sequence (P00533 with tags, fused parts or gaps DEL752-759 limits assumed): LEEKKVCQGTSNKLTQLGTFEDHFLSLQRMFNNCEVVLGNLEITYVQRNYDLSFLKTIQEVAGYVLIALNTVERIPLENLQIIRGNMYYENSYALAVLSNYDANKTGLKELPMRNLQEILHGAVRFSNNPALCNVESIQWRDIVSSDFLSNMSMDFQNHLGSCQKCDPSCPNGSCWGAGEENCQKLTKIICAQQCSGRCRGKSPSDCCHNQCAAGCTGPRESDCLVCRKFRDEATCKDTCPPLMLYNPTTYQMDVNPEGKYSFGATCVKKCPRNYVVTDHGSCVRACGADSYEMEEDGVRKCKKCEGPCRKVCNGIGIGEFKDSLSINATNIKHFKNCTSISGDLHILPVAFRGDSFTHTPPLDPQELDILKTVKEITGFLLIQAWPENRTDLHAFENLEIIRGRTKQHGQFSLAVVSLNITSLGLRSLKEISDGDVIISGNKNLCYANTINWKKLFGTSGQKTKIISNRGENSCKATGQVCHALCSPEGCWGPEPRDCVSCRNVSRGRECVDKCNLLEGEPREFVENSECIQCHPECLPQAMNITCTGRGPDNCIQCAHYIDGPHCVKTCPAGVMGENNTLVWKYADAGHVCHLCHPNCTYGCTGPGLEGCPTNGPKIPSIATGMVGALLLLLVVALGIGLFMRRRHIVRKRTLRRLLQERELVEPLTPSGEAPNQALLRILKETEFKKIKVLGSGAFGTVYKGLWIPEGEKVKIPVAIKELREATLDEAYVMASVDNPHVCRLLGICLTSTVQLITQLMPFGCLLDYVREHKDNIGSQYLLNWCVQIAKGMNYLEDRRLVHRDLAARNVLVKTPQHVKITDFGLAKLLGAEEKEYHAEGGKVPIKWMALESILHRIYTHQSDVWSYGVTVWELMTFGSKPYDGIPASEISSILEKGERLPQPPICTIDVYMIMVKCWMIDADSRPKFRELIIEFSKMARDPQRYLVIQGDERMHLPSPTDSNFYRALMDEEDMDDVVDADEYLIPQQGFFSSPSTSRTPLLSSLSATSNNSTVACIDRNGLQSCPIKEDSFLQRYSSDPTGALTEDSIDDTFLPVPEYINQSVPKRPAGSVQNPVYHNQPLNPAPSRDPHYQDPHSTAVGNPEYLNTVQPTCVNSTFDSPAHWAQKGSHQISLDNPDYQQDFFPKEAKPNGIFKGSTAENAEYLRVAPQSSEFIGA

468 kinases [3] = target: 468 kinases (Homo sapiens, UniProt Q6XUX3); settings: RIPK5; read-out: % Inhibition @ 100 nM
468 kinases [4] = target: 468 kinases (Homo sapiens, UniProt Q04912); settings: MST1R; read-out: % Inhibition @ 100 nM
468 kinases (Homo sapiens, UniProt Q04912), sequence (Q04912 25-304 limits assumed): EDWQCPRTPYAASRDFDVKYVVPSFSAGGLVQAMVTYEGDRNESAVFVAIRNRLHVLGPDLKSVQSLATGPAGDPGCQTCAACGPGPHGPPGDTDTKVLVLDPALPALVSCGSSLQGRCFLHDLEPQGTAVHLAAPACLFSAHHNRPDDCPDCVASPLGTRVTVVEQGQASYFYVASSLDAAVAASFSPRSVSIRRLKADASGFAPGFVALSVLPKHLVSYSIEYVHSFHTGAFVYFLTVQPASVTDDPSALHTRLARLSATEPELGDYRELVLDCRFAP
468 kinases (Homo sapiens, UniProt Q04912), sequence (Q04912 310-1400 limits assumed): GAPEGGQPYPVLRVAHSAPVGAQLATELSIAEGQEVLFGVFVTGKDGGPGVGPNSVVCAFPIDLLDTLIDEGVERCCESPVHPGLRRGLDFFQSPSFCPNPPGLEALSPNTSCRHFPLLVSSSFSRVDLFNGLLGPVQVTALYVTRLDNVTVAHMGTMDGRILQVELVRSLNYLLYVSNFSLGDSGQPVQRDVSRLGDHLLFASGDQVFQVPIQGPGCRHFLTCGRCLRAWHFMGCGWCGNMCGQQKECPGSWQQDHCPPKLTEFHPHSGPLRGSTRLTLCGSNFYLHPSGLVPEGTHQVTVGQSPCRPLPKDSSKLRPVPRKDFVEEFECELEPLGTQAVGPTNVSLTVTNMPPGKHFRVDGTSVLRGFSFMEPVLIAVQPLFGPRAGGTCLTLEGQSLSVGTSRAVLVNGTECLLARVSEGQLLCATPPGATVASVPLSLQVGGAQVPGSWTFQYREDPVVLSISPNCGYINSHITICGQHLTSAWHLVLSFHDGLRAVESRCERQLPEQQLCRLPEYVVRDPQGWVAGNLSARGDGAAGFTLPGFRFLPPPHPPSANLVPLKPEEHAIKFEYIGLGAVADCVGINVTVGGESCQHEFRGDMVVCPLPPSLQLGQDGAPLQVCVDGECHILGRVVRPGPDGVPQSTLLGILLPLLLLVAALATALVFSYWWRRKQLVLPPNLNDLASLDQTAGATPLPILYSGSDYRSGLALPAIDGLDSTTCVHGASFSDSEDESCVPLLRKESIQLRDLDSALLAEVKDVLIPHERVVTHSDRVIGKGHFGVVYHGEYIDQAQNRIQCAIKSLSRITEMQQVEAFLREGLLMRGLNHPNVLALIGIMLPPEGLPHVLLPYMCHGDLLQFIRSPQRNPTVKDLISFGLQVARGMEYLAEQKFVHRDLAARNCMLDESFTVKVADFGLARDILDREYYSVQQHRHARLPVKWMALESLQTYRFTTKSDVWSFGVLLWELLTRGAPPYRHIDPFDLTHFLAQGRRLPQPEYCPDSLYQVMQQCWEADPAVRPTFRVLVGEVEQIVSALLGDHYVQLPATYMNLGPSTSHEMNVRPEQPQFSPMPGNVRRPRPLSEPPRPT

468 kinases [5] = target: 468 kinases (Homo sapiens, UniProt Q9Y3S1); settings: WNK2; read-out: % Inhibition @ 100 nM
468 kinases [6] = target: 468 kinases (Homo sapiens, UniProt P36888, R834Q); settings: FLT3(R834Q); read-out: % Inhibition @ 100 nM
468 kinases [7] = target: 468 kinases (Homo sapiens, UniProt P08922); settings: ROS1; read-out: % Inhibition @ 100 nM
468 kinases [8] = target: 468 kinases (Homo sapiens, UniProt P08581, Y1235D); settings: MET(Y1235D); read-out: % Inhibition @ 100 nM
468 kinases [9] = target: 468 kinases (Homo sapiens, UniProt O60285); settings: ARK5; read-out: % Inhibition @ 100 nM
468 kinases [10] = target: 468 kinases (Homo sapiens, UniProt P42680); settings: TEC; read-out: % Inhibition @ 100 nM
468 kinases [11] = target: 468 kinases (Homo sapiens, UniProt Q7KZI7); settings: MARK2; read-out: % Inhibition @ 100 nM
468 kinases [12] = target: 468 kinases (Homo sapiens, UniProt Q13555); settings: CAMK2G; read-out: % Inhibition @ 100 nM
468 kinases [13] = target: 468 kinases (Homo sapiens, UniProt P51451); settings: BLK; read-out: % Inhibition @ 100 nM
468 kinases (Homo sapiens, UniProt P51451), sequence (P51451 2-505 limits assumed): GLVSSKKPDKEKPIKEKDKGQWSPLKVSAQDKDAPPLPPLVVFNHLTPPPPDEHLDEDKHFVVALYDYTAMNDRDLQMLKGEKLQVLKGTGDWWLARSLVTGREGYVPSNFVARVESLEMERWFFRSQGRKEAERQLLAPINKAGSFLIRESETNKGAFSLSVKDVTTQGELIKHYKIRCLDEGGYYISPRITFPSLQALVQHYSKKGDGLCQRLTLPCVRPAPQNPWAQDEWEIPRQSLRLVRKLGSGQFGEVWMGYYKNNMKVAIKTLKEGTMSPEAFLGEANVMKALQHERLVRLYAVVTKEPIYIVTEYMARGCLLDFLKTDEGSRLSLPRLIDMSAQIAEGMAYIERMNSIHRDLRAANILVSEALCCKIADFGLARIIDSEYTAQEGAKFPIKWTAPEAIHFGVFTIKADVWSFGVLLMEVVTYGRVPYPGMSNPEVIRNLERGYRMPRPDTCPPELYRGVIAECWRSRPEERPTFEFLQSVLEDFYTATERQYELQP

468 kinases [14] = target: 468 kinases (Homo sapiens, UniProt O94804); settings: LOK; read-out: % Inhibition @ 100 nM
468 kinases [15] = target: 468 kinases (Homo sapiens, UniProt O14578); settings: CIT; read-out: % Inhibition @ 100 nM
468 kinases [16] = target: 468 kinases (Homo sapiens, UniProt Q99683); settings: ASK1; read-out: % Inhibition @ 100 nM
468 kinases [17] = target: 468 kinases (Homo sapiens, UniProt P42684); settings: ABL2; read-out: % Inhibition @ 100 nM
468 kinases [18] = target: 468 kinases (Homo sapiens, UniProt P37023); settings: ACVRL1; read-out: % Inhibition @ 100 nM
468 kinases [19] = target: 468 kinases (Homo sapiens, UniProt P22607); settings: FGFR3; read-out: % Inhibition @ 100 nM
468 kinases [20] = target: 468 kinases (Homo sapiens, UniProt Q9Y2H1); settings: NDR2; read-out: % Inhibition @ 100 nM
468 kinases (Homo sapiens, UniProt Q9Y2H1), sequence (Q9Y2H1 2-464 limits assumed): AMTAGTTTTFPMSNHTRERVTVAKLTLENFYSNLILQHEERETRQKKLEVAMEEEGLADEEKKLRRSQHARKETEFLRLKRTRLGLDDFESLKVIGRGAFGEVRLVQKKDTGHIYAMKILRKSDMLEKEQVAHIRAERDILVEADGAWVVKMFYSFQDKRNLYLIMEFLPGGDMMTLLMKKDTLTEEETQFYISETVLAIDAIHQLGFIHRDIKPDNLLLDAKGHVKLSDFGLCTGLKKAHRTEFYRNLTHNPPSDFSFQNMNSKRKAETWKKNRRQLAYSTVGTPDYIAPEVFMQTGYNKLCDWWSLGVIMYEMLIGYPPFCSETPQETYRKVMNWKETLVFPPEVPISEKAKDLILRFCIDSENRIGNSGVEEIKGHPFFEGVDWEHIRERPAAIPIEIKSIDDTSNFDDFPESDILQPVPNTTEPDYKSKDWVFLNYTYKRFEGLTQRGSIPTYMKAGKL

468 kinases [21] = target: 468 kinases (Homo sapiens, UniProt Q86V86); settings: PIM3; read-out: % Inhibition @ 100 nM
468 kinases [22] = target: 468 kinases (Homo sapiens, UniProt O95382); settings: ASK2; read-out: % Inhibition @ 100 nM
468 kinases [23] = target: 468 kinases (Homo sapiens, UniProt P11309); settings: PIM1; read-out: % Inhibition @ 100 nM
468 kinases [24] = target: 468 kinases (Homo sapiens, UniProt P36888, D835Y); settings: FLT3(D835Y); read-out: % Inhibition @ 100 nM
468 kinases [25] = target: 468 kinases (Homo sapiens, UniProt P10721, V559D); settings: KIT(V559D); read-out: % Inhibition @ 100 nM
468 kinases [26] = target: 468 kinases (Homo sapiens, UniProt Q14012); settings: CAMK1; read-out: % Inhibition @ 100 nM
468 kinases [27] = target: 468 kinases (Homo sapiens, UniProt Q9C098); settings: DCAMKL3; read-out: % Inhibition @ 100 nM
468 kinases [28] = target: 468 kinases (Homo sapiens, UniProt Q02156); settings: PRKCE; read-out: % Inhibition @ 100 nM
468 kinases [29] = target: 468 kinases (Homo sapiens, UniProt P00533, L858R/T790M); settings: EGFR(L858R,T790M); read-out: % Inhibition @ 100 nM
468 kinases [30] = target: 468 kinases (Homo sapiens, UniProt Q8WU08); settings: YANK1; read-out: % Inhibition @ 100 nM
468 kinases [31] = target: 468 kinases (Homo sapiens, UniProt P49336); settings: CDK8; read-out: % Inhibition @ 100 nM
468 kinases [32] = target: 468 kinases (Homo sapiens, UniProt P29317); settings: EPHA2; read-out: % Inhibition @ 100 nM
468 kinases (Homo sapiens, UniProt P29317), sequence (P29317 24-976 limits assumed): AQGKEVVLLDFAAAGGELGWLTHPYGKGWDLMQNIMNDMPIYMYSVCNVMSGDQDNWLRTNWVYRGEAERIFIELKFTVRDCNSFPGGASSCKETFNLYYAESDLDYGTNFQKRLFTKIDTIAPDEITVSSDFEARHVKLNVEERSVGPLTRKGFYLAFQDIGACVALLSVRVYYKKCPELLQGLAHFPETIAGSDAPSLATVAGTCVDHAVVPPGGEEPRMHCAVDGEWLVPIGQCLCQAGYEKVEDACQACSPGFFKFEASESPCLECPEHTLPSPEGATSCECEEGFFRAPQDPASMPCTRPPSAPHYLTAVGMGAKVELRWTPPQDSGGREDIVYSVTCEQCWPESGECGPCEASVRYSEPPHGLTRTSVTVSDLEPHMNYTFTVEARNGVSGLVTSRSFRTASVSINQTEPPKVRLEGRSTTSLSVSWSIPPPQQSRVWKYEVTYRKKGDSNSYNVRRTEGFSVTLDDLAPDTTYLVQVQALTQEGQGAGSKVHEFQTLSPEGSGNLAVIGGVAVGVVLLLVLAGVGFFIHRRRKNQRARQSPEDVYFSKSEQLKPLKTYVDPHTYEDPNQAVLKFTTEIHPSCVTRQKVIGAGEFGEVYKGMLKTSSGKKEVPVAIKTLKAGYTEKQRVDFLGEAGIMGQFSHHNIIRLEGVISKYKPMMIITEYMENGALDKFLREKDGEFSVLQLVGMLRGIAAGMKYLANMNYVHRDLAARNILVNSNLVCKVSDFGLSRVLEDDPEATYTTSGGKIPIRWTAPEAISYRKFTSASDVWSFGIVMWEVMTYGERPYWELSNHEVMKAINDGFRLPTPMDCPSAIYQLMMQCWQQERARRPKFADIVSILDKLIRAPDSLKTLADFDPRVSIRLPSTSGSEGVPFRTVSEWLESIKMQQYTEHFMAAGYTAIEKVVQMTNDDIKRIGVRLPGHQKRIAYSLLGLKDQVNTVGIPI

468 kinases [33] = target: 468 kinases (Homo sapiens, UniProt P07948); settings: LYN; read-out: % Inhibition @ 100 nM
468 kinases (Homo sapiens, UniProt P07948), sequence (P07948 2-512 limits assumed): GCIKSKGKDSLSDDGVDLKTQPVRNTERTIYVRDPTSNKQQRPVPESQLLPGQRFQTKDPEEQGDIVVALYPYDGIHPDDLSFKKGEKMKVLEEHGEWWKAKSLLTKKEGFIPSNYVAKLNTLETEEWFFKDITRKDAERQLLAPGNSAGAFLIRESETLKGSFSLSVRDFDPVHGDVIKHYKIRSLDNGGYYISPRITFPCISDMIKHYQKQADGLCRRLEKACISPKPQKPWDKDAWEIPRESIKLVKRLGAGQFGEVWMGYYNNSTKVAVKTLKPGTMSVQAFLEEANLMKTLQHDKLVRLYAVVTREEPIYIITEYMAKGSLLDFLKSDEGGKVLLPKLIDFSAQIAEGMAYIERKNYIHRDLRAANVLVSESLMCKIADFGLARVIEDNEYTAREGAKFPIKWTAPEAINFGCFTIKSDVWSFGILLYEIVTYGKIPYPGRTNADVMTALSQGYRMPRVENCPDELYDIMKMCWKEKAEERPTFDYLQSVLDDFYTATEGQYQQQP

| Structure (SMILES) | inhibition at 0.1 µM (468 kinases [1]) [%] | inhibition at 0.1 µM (468 kinases [2]) [%] | inhibition at 0.1 µM (468 kinases [3]) [%] | inhibition at 0.1 µM (468 kinases [4]) [%] | inhibition at 0.1 µM (468 kinases [5]) [%] | inhibition at 0.1 µM (468 kinases [6]) [%] | inhibition at 0.1 µM (468 kinases [7]) [%] | inhibition at 0.1 µM (468 kinases [8]) [%] | inhibition at 0.1 µM (468 kinases [9]) [%] | inhibition at 0.1 µM (468 kinases [10]) [%] | inhibition at 0.1 µM (468 kinases [11]) [%] | inhibition at 0.1 µM (468 kinases [12]) [%] | inhibition at 0.1 µM (468 kinases [13]) [%] | inhibition at 0.1 µM (468 kinases [14]) [%] | inhibition at 0.1 µM (468 kinases [15]) [%] | inhibition at 0.1 µM (468 kinases [16]) [%] | inhibition at 0.1 µM (468 kinases [17]) [%] | inhibition at 0.1 µM (468 kinases [18]) [%] | inhibition at 0.1 µM (468 kinases [19]) [%] | inhibition at 0.1 µM (468 kinases [20]) [%] | further results |
| --- | --- | --- | --- | --- | --- | --- | --- | --- | --- | --- | --- | --- | --- | --- | --- | --- | --- | --- | --- | --- | --- |
| CCN(CC)CCNC(=O)c1c(C)[nH]c(/C=C2\C(=O)Nc3ccc(CCO)cc32)c1C [Compound No. 10, (Z)—N-(2-(Diethylamino)ethyl)-5-((5-(2-hydroxyethyl)-2-oxoindolin-3-ylidene)methyl)-2,4-dimethyl-1H-pyrrole-3-carboxamide] | 88 | 14 | 0 | 5 | 0 | 56 | 15 | 4 | 84 | 0 | 6 | 8 | 40 | 3 | 4 | 0 | 0 | 0 | 52 | 0 | inhibition at 0.1 µM (468 kinases [21]): 8%; inhibition at 0.1 µM (468 kinases [22]): 0%; inhibition at 0.1 µM (468 kinases [23]): 0%; inhibition at 0.1 µM (468 kinases [24]): 100%; inhibition at 0.1 µM (468 kinases [25]): 88%; inhibition at 0.1 µM (468 kinases [26]): 0%; inhibition at 0.1 µM (468 kinases [27]): 73%; inhibition at 0.1 µM (468 kinases [28]): 0%; inhibition at 0.1 µM (468 kinases [29]): 0%; inhibition at 0.1 µM (468 kinases [30]): 0%; inhibition at 0.1 µM (468 kinases [31]): 23%; inhibition at 0.1 µM (468 kinases [32]): 2%; inhibition at 0.1 µM (468 kinases [33]): 6% |
| CCN(CC)CCNC(=O)c1c(C)[nH]c(/C=C2\C(=O)Nc3ccc(CCC(N)=O)cc32)c1C [Compound No. 16, (Z)-5-((5-(3-Amino-3-oxopropyl)-2-oxoindolin-3-ylidene)methyl)-N-(2-(diethylamino)ethyl)-2,4-dimethyl-1H-pyrrole-3-carboxamide] | 89 | 19 | 3 | 0 | 13 | 55 | 0 | 0 | 71 | 0 | 40 | 18 | 29 | 0 | 0 | 20 | 3 | 0 | 11 | 11 | inhibition at 0.1 µM (468 kinases [21]): 0%; inhibition at 0.1 µM (468 kinases [22]): 47%; inhibition at 0.1 µM (468 kinases [23]): 0%; inhibition at 0.1 µM (468 kinases [24]): 100%; inhibition at 0.1 µM (468 kinases [25]): 0%; inhibition at 0.1 µM (468 kinases [26]): 0%; inhibition at 0.1 µM (468 kinases [27]): 88%; inhibition at 0.1 µM (468 kinases [28]): 5%; inhibition at 0.1 µM (468 kinases [29]): 18%; inhibition at 0.1 µM (468 kinases [30]): 23%; inhibition at 0.1 µM (468 kinases [31]): 15%; inhibition at 0.1 µM (468 kinases [32]): 0%; inhibition at 0.1 µM (468 kinases [33]): 9% |
